Assay results taken from BigSolDB 2.1.

C=C1CC[C@H](O)C/C1=C/C=C1\CCC[C@]2(C)[C@@H]([C@H](C)CCCC(C)C)CC[C@@H]12
solubility (mole fraction)
Settings	in DMSO	in ethanol	in ethyl acetate	in ethylene glycol	in isopropanol	in n-butanol	in propylene glycol	in sec-butanol	in transcutol	in water
273.2 K	0.0041	0.136	0.0904	0.000113	0.19	0.151	0.00142	0.154	0.369	1.87e-07
278.2 K	0.00469	0.144	0.109	0.000161	0.202	0.157	0.00176	0.161	0.375	2.9e-07
283.2 K	0.00533	0.153	0.131	0.000234	0.215	0.163	0.00209	0.168	0.382	4.22e-07
288.2 K	0.00601	0.162	0.15	0.000318	0.225	0.169	0.00249	0.176	0.39	5.67e-07
298.2 K	0.00723	0.177	0.195	0.000524	0.245	0.169	0.00337	0.187	0.403	1.03e-06

Settings	solubility (mole fraction)
in PEG-400, 273.2 K	0.0135
in PEG-400, 278.2 K	0.0162
in PEG-400, 283.2 K	0.0191
in PEG-400, 288.2 K	0.0222
in PEG-400, 298.2 K	0.0291
